Results: publication PMC9344462 (Journal of Medicinal Chemistry, 2022)

Assays:
PknGΔTPRΔ73 mutant I292G = PknGΔTPRΔ73 mutant I292G (Mycobacterium tuberculosis, UniProt P9WI73, I292G); assay type: binding; details: 100 µM
PknGΔTPRΔ73 mutant Y234L = PknGΔTPRΔ73 mutant Y234L (Mycobacterium tuberculosis, UniProt P9WI73, Y234L); assay type: binding; details: 100 µM
PknGΔTPRΔ73 mutant V235P = PknGΔTPRΔ73 mutant V235P (Mycobacterium tuberculosis, UniProt P9WI73, V235P); assay type: binding; details: 100 µM
[1] = biological target: full-length PknG with natural substrate GarA (Mycobacterium tuberculosis, UniProt P9WI73); assay: Kinase Glo Plus luminescent end point inhibition assay; assay type: biochemical; details: tethered docking compounds assayed at 40 μM

Compound	shift in the melting temperature (PknGΔTPRΔ73 mutant I292G)	shift in the melting temperature (PknGΔTPRΔ73 mutant Y234L)	shift in the melting temperature (PknGΔTPRΔ73 mutant V235P)	kinase activity [1]
NC(=O)c1c(N)c(C(=O)c2ccc(F)cc2)n2ccccc12 [B1]	no shift	no shift	no shift	–
CC(C)c1ccc(C(=O)c2c(N)c(C(N)=O)c3ccccn23)cc1 [T1]	–	–	–	considerably diminished kinase activity
NC(=O)c1c(NC(=O)NCC2CCCO2)sc2c1CCCC2 (stereo not drawn) [T2]	–	–	–	considerably diminished kinase activity
CCN1CCCC1CNC(=O)Nc1sc2c(c1C(N)=O)CCCC2 (stereo not drawn) [T3]	–	–	–	considerably diminished kinase activity
